Bridge positions count the residues as written; N and C are the ends. Square brackets hold non-standard residues; d marks the D form. Peptide text beside a SMILES is read from it. * marks the point of attachment. ξ: configuration not given here. Phe(4-COOH) = N[C@@H](Cc1ccc(C(=O)O)cc1)C(=O)O; Bip = N[C@@H](Cc1ccc(-c2ccccc2)cc1)C(=O)O; NH(CH2)14COOH = O=C(O)CCCCCCCCCCCCCCN*; Phe(3-Me) = Cc1cccc(C[C@H](N)C(=O)O)c1; Val(3-OH) = CC(C)(O)[C@H](N)C(=O)O; hArg = N=C(N)NCCCC[C@H](N)C(=O)O; 4Pal = N[C@@H](Cc1ccncc1)C(=O)O; Cha = N[C@@H](CC1CCCCC1)C(=O)O; Cit = NC(=O)NCCC[C@H](N)C(=O)O; Thr(3ξ) = CC(O)[C@H](N)C(=O)O; 12Ado = NCCCCCCCCCCCC(=O)O; Carboxymethyl = O=C(O)C*; Nle = CCCC[C@H](N)C(=O)O; Orn = NCCC[C@H](N)C(=O)O; Aun = NCCCCCCCCCCC(=O)O; Dab = NCC[C@H](N)C(=O)O; Dap = NC[C@H](N)C(=O)O; AEEA = NCCOCCOCC(=O)O
biological target: T1, PD-1/PD-L1 interaction (PE-labeled human PD-L1-Ig binding to Jurkat cell line over-expressing human PD-1) (Homo sapiens, UniProt Q15116); experiment: Jurkat-PD-1 Cell Binding High-Content Screening Assay (CBA); format: cell-based; conditions: Jurkat cell line over-expressing human PD-1; PE-labeled PD-L1-Ig 20 nM final; read-out: Jurkat hPD1-PDL1 IC50
T1 construct: expressed in transfected cells; host or cells: Jurkat
Outline: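 First, compound is added to PD-1-expressing Jurkat cells in serum-containing DMEM and left 2 h at 37° C. Next, PE-conjugated PD-L1-Ig is introduced at 20 nM final concentration for 1 hour. Finally, cells are fixed in 4% paraformaldehyde with Hoechst 33342, washed and imaged.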

T1 sequence (Q15116 25-288): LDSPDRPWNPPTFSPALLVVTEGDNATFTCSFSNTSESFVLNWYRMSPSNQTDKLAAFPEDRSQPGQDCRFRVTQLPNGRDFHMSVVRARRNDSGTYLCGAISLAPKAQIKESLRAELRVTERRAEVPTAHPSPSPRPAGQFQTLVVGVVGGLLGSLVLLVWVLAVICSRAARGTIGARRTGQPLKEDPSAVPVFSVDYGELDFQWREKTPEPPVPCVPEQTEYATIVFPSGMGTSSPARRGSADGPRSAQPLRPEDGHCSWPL

| IC50 [nM] | Structure (SMILES) |
| --- | --- |
| 56.2 | Cc1cccc(C[C@@H]2NC(=O)[C@H](CC(=O)O)NC(=O)[C@H](Cc3ccc(OCC(=O)O)cc3)NC(=O)[C@H](Cc3ccc(OCC(=O)O)cc3)NC(=O)CSC[C@@H](C(=O)N[C@@H](CN)C(=O)NCCCCCCCCCCC(=O)O)NC(=O)[C@H](CO)NC(=O)[C@H](C(C)C)NC(=O)[C@H](CC3CCCCC3)NC(=O)[C@H](CCN)NC(=O)[C@@H](CC(C)C)NC(=O)[C@H](CCCN)NC(=O)[C@H](C(C)C)NC(=O)[C@H](Cc3ccc(-c4ccccc4)cc3)NC(=O)[C@H](CC(C)C)NC2=O)c1 [Compound 1061] ({CH2CO}-Y(Carboxymethyl)Y(Carboxymethyl)D[Phe(3-Me)]L[Bip]V[Orn][dL][Dab][Cha]VSC[Dap][Aun]-OH; thioether N-14) |
| 121 | Cc1cccc(C[C@@H]2NC(=O)[C@H](CC(=O)O)NC(=O)[C@H](Cc3ccc(OCC(=O)O)cc3)NC(=O)[C@H](CCCNC(=N)N)NC(=O)CSC[C@@H](C(=O)N[C@H](CC(N)=O)C(=O)NCCCCCCCCCCC(=O)O)NC(=O)[C@H](C(C)O)NC(=O)[C@H](C(C)O)NC(=O)[C@H](CC3CCCCC3)NC(=O)[C@H](CCN)NC(=O)[C@@H](CC(C)C)NC(=O)[C@H](CCCN)NC(=O)[C@H](Cc3ccc(OCC(=O)O)cc3)NC(=O)[C@H](Cc3ccc(-c4ccccc4)cc3)NC(=O)[C@H](Cc3ccc(OCC(=O)O)cc3)NC2=O)c1 (stereo partly drawn) [Compound 3523] ({CH2CO}-RY(Carboxymethyl)D[Phe(3-Me)]Y(Carboxymethyl)[Bip]Y(Carboxymethyl)[Orn][dL][Dab][Cha][Thr(3ξ)][Thr(3ξ)]C[dN][Aun]-OH; thioether N-14) |
| 8.7 | CC(C)C[C@H]1NC(=O)[C@H](CCCN)NC(=O)[C@H](C(C)C)NC(=O)[C@H](Cc2ccc(-c3ccccc3)cc2)NC(=O)[C@H](C(C)C)NC(=O)[C@H](Cc2c[nH]c3ccccc23)NC(=O)[C@H](CC(=O)O)NC(=O)[C@H](Cc2ccc(OCC(=O)O)cc2)NC(=O)[C@H](CCCCNC(=N)N)NC(=O)CSC[C@@H](C(=O)N[C@H](CC(N)=O)C(=O)NCCCCCCCCCCC(=O)O)NC(=O)[C@H](CCCN)NC(=O)[C@H](C(C)C)NC(=O)[C@H](CC2CCCCC2)NC(=O)[C@H](CCN)NC1=O [Compound 3278] ({CH2CO}-[hArg]Y(Carboxymethyl)DWV[Bip]V[Orn][dL][Dab][Cha]V[Orn]C[dN][Aun]-OH; thioether N-14) |
| 17.9 | Cc1cccc(C[C@@H]2NC(=O)[C@H](CC(=O)O)NC(=O)[C@H](Cc3ccc(OCC(=O)O)cc3)NC(=O)[C@H](CN)NC(=O)CSC[C@@H](C(=O)N[C@@H](CCN)C(=O)NCCOCCOCC(=O)NCCCCCCCCCCC(=O)O)NC(=O)[C@H](CCCN)NC(=O)[C@H](Cc3ccc(O)cc3)NC(=O)[C@H](CC3CCCCC3)NC(=O)[C@H](CCN)NC(=O)[C@@H](CC(C)C)NC(=O)[C@H](CCCN)NC(=O)[C@H](CCCNC(N)=O)NC(=O)[C@H](Cc3ccc(-c4ccccc4)cc3)NC(=O)[C@H](C(C)C)NC2=O)c1 [Compound 2584] ({CH2CO}-[Dap]Y(Carboxymethyl)D[Phe(3-Me)]V[Bip][Cit][Orn][dL][Dab][Cha]Y[Orn]C[Dab][AEEA][Aun]-OH; thioether N-14) |
| 5.1 | Cc1cccc(C[C@@H]2NC(=O)[C@H](CC(=O)O)NC(=O)[C@H](Cc3ccc(OCC(=O)O)cc3)NC(=O)[C@H](CCCNC(=N)N)NC(=O)CSC[C@@H](C(=O)N[C@@H](CCN)C(=O)NCCCCCCCCCCC(=O)O)NC(=O)[C@H](CCC(N)=O)NC(=O)[C@H](C(C)(C)O)NC(=O)[C@H](CC3CCCCC3)NC(=O)[C@H](CCN)NC(=O)[C@@H](CC(C)C)NC(=O)[C@H](CCCN)NC(=O)[C@H](Cc3ccc(OCC(=O)O)cc3)NC(=O)[C@H](Cc3ccc(-c4ccccc4)cc3)NC(=O)[C@H](Cc3ccc(OCC(=O)O)cc3)NC2=O)c1 [Compound 3533] ({CH2CO}-RY(Carboxymethyl)D[Phe(3-Me)]Y(Carboxymethyl)[Bip]Y(Carboxymethyl)[Orn][dL][Dab][Cha][Val(3-OH)]QC[Dab][Aun]-OH; thioether N-14) |
| 46.7 | CC(C)C[C@H]1NC(=O)[C@H](CCCN)NC(=O)[C@H](C(C)C)NC(=O)[C@H](Cc2ccc(-c3ccccc3)cc2)NC(=O)[C@H](C(C)C)NC(=O)[C@H](Cc2c[nH]c3ccccc23)NC(=O)[C@H](CC(=O)O)NC(=O)[C@H](Cc2ccc(OCC(=O)O)cc2)NC(=O)[C@H](CN)NC(=O)CSC[C@@H](C(=O)N[C@@H](CCCCN)C(=O)NCCCCCCCCCCC(=O)O)NC(=O)[C@H]([C@@H](C)O)NC(=O)[C@H](C(C)C)NC(=O)[C@H](CC2CCCCC2)NC(=O)[C@H](Cc2c[nH]cn2)NC1=O [Compound 1077] ({CH2CO}-[Dap]Y(Carboxymethyl)DWV[Bip]V[Orn][dL]H[Cha]VTCK[Aun]-OH; thioether N-14) |
| 1.9 | CCCC[C@@H]1NC(=O)CSC[C@@H](C(=O)N[C@@H](CCN)C(=O)NCCCCCCCCCCC(=O)O)NC(=O)[C@H](CCC(=O)O)NC(=O)[C@H](C(C)(C)O)NC(=O)[C@H](CC2CCCCC2)NC(=O)[C@H](CCN)NC(=O)[C@@H](CC(C)C)NC(=O)[C@H](CCCN)NC(=O)[C@H](Cc2ccc(OCC(=O)O)cc2)NC(=O)[C@H](Cc2ccc(-c3ccccc3)cc2)NC(=O)[C@H](Cc2ccc(OCC(=O)O)cc2)NC(=O)[C@H](Cc2cccc(C)c2)NC(=O)[C@H](CC(=O)O)NC(=O)[C@H](Cc2ccc(OCC(=O)O)cc2)NC1=O [Compound 3796] ({CH2CO}-[Nle]Y(Carboxymethyl)D[Phe(3-Me)]Y(Carboxymethyl)[Bip]Y(Carboxymethyl)[Orn][dL][Dab][Cha][Val(3-OH)]EC[Dab][Aun]-OH; thioether N-14) |
| 19.3 | CC(C)C[C@H]1NC(=O)[C@H](CCCN)NC(=O)[C@H](Cc2ccc(O)cc2)NC(=O)[C@H](Cc2ccc(-c3ccccc3)cc2)NC(=O)[C@H](C(C)C)NC(=O)[C@H](Cc2c[nH]c3ccccc23)NC(=O)[C@H](CC(=O)O)NC(=O)[C@H](Cc2ccc(O)cc2)NC(=O)[C@H](Cc2ccncc2)NC(=O)CSC[C@@H](C(=O)N[C@@H](CCN)C(=O)NCCOCCOCC(=O)NCCCCCCCCCCC(=O)O)NC(=O)[C@H](CCCN)NC(=O)[C@H](C(C)C)NC(=O)[C@H](CC2CCCCC2)NC(=O)[C@H](CCN)NC1=O [Compound 2703] ({CH2CO}-[4Pal]YDWV[Bip]Y[Orn][dL][Dab][Cha]V[Orn]C[Dab][AEEA][Aun]-OH; thioether N-14) |
| 129 | CC(C)C[C@@H]1NC(=O)[C@H](Cc2c[nH]c3ccccc23)NC(=O)[C@H](CC(=O)O)NC(=O)[C@H](Cc2ccc(OCC(=O)O)cc2)NC(=O)[C@H](CCCCNC(=N)N)NC(=O)CSC[C@@H](C(=O)N[C@@H](C)C(=O)NCCOCCOCC(=O)N[C@@H](CCCCN)C(=O)NCCOCCOCC(=O)NCCCCCCCCCCCCCCC(=O)O)NC(=O)[C@H](CO)NC(=O)[C@H](C(C)C)NC(=O)[C@H](CC2CCCCC2)NC(=O)[C@H](CCN)NC(=O)[C@@H](CC(C)C)NC(=O)[C@H](CCCN)NC(=O)[C@H](C(C)C)NC(=O)[C@H](Cc2ccc(-c3ccccc3)cc2)NC1=O [Compound 3006] ({CH2CO}-[hArg]Y(Carboxymethyl)DWL[Bip]V[Orn][dL][Dab][Cha]VSCA[AEEA]K[AEEA]-{NH(CH2)14COOH}; thioether N-14) |
| 8.6 | Cc1cccc(C[C@@H]2NC(=O)[C@H](CC(=O)O)NC(=O)[C@H](Cc3ccc(OCC(=O)O)cc3)NC(=O)[C@H](CCN)NC(=O)CSC[C@@H](C(=O)N[C@@H](CCN)C(=O)NCCCCCCCCCCC(=O)O)NC(=O)[C@H](Cc3cnc[nH]3)NC(=O)[C@H](C(C)O)NC(=O)[C@H](CC3CCCCC3)NC(=O)[C@H](CCN)NC(=O)[C@@H](CC(C)C)NC(=O)[C@H](CCCN)NC(=O)[C@H](Cc3ccc(OCC(=O)O)cc3)NC(=O)[C@H](Cc3ccc(-c4ccccc4)cc3)NC(=O)[C@H](Cc3ccc(OCC(=O)O)cc3)NC2=O)c1 (stereo partly drawn) [Compound 3633] ({CH2CO}-[Dab]Y(Carboxymethyl)D[Phe(3-Me)]Y(Carboxymethyl)[Bip]Y(Carboxymethyl)[Orn][dL][Dab][Cha][Thr(3ξ)]HC[Dab][Aun]-OH; thioether N-14) |
| 28.4 | CC(C)C[C@H]1NC(=O)[C@H](CCCN)NC(=O)[C@H](Cc2ccc(O)cc2)NC(=O)[C@H](Cc2ccc(-c3ccccc3)cc2)NC(=O)[C@H](Cc2ccc(O)cc2)NC(=O)[C@H](Cc2c[nH]c3ccccc23)NC(=O)[C@H](CC(=O)O)NC(=O)[C@H](Cc2ccc(C(=O)O)cc2)NC(=O)[C@H](Cc2ccc(OCC(=O)O)cc2)NC(=O)CSC[C@@H](C(=O)N[C@@H](CCN)C(=O)NCCOCCOCC(=O)NCCCCCCCCCCC(=O)O)NC(=O)[C@H](CCCCN)NC(=O)[C@H](Cc2ccc(O)cc2)NC(=O)[C@H](CC2CCCCC2)NC(=O)[C@H](CCN)NC1=O [Compound 2501] ({CH2CO}-Y(Carboxymethyl)[Phe(4-COOH)]DWY[Bip]Y[Orn][dL][Dab][Cha]YKC[Dab][AEEA][Aun]-OH; thioether N-14) |
| 65.5 | CC(C)C[C@H]1NC(=O)[C@H](CCCN)NC(=O)[C@H](C(C)C)NC(=O)[C@H](Cc2ccc(-c3ccccc3)cc2)NC(=O)[C@H](C(C)C)NC(=O)[C@H](Cc2c[nH]c3ccccc23)NC(=O)[C@H](CC(=O)O)NC(=O)[C@H](Cc2c[nH]cn2)NC(=O)[C@H](CCCCNC(=N)N)NC(=O)CSC[C@@H](C(=O)N[C@@H](CCN)C(=O)NCCCCCCCCCCC(=O)O)NC(=O)[C@H](CCN)NC(=O)[C@H](C(C)C)NC(=O)[C@H](CC2CCCCC2)NC(=O)[C@H](CCN)NC1=O [Compound 3269] ({CH2CO}-[hArg]HDWV[Bip]V[Orn][dL][Dab][Cha]V[Dab]C[Dab][Aun]-OH; thioether N-14) |
| 62.3 | CC(=O)NCCCC[C@@H]1NC(=O)[C@H](Cc2ccc(-c3ccccc3)cc2)NC(=O)[C@H](Cc2ccc(O)cc2)NC(=O)[C@H](Cc2cccc(C)c2)NC(=O)[C@H](CC(=O)O)NC(=O)[C@H](Cc2ccc(OCC(=O)O)cc2)NC(=O)[C@H](CCN)NC(=O)CSC[C@@H](C(=O)N[C@@H](CCN)C(=O)N[C@@H](CO)C(=O)NCCCCCCCCCCCC(=O)O)NC(=O)[C@H](CCCN)NC(=O)[C@H](C(C)O)NC(=O)[C@H](CC2CCCCC2)NC(=O)[C@H](CCN)NC(=O)[C@@H](CC(C)C)NC(=O)[C@H](CCCN)NC1=O (stereo partly drawn) [Compound 3623] ({CH2CO}-[Dab]Y(Carboxymethyl)D[Phe(3-Me)]Y[Bip]K(Ac)[Orn][dL][Dab][Cha][Thr(3ξ)][Orn]C[Dab]S[12Ado]-OH; thioether N-14) |
